This assay deals with Tobacco. Put plainly: Weed and crop Petri dish bioassay, radicle length. It counts as in vivo, Nicotiana tobacum L. The procedure: m-Tyrosine activity was bioassayed using selected weed and crop species. Growth inhibition as measured by radicle elongation was evaluated in dandelion (Taraxacum officinale Weber in […].), large crabgrass (Digitaria sanguinalis (L.) Scop.), velvetleaf (Abutilon theophrasti Medicus), black medic (Medicago lupulina L.), curly cress (Lepidium sativum L.), bamyardgrass (Echinochloa crus-galli.(L.) Beauv.), lettuce (Lactuca sativa L.), purslane (Portulaca oleracea L.), annual bluegrass (Poa annua L.), birdsfoot trefoil (Lotus corniculatus L.), broadleaf plantain (Plantago major L.), mouseear chickweed (Cerastium vulgatum L.), common chickweed (Stellaria media (L.) Vill.), white clover (Trifolium repens L.), wheat (Triticum aestivum L.), tomato (Lycopersicon esculentum var. esculentum P. Mill.), tobacco (Nicotiana tobacum L.), and sorghum sudangrass hybrid (Sorghum bicolor x Sudanese). Weeds were purchased from HerbiSeeds, England, tomato seeds were purchased from Agway (Ithaca N.Y.), and wheat, sudex and tobacco where donated by Pioneer Seeds (Johnson, Iowa). Seeds were sterilized by a water: ethanol mixture (1:1) for one minute and rinsed three times thoroughly in distilled water. The simple phytotoxicity bioassay utilized consisted of the evaluation of radicle length of ten sterilized seeds of each weed/crop deposited on a filter paper containing the appropriate m-tyrosine test solution in 4.5 cm Petri dishes. […] A 1000 μL aliquot of the appropriate test solution was added to individual Petri dishes lined with Whatman No. 1 filter paper. Control dishes received 1000 μL of water. After seeds were placed on moistened filter paper, Petri dishes were transferred to a controlled environment with a light regime of 45,33 photon m^-2 s^-1 and maintained at an average temperature of 25° C. for 7 days. At the end of the incubation period, radicle length was measured. Treatments were replicated three times, and the experiment for each plant species tested was repeated three times.

`N[C@@H](Cc1cccc(O)c1)C(=O)O` [m-tyrosine, 3-hydroxyphenylalanine] gave an I10 of 30 µM and an I100 of 160 µM. Further, the IC50 (Nicotiana tabacum, read-out: I50) was 40 µM.

The values above are taken from patent publication US8461085B2, “Bioherbicide from Festuca spp” (Cornell Research Foundation, Inc., priority 2005, dated 2013).
